According to patent publication US4137311A, “Synergistic compositions and method of use” (William H. Rorer, Inc., priority 1977, dated 1979):
Where a name gives a salt, the structure may show the parent alone.

Columns and labels:
[1] = system: Croton-Oil Induced Inflammation To The Mouse's Ear; assay: Delayed co-application to existing croton-oil induced inflammation of the mouse's ear (Table II), edema weight and percent inhibition; conditions: for Ear edema weight (± S.D.): control 14.9±3.8
Procedure: (§1) Hydrocortisone and bis-(2-pyridyl-1-oxide) disulfide magnesium sulfate were suspended or dissolved in ethanol U.S.P. (200 proof) at concentrations of 20, 40 and 80 mg/ml of bis-(2-pyridyl-1-oxide) disulfide magnesium sulfate and 0.01, 1 and 10 mg of hydrocortisone.
Groups of mice treated with only the croton oil irritant solution served as controls. The right ear of mice in any group was not treated.
(§2) Four hours after application of the irritant vehicle (three hours after drug application) both ears were amputated and one circular section was exercised from each ear using a No. 4 cork borer (7 mm i.d.). The ear sections were then weighed. The increase in weight due to edema formation caused by the croton oil in the treated ear and reduction of the edema caused by treatment with bis-(2-pyridyl-1-oxide) disulfide magnesium sulfate hydrocortisone or combinations thereof was determined by subtracting the weight of the untreated right ear section from that of the treated left ear section.

[2] = Solubility in ethanol U.S.P. (200 proof)
[3] = system: Croton-Oil Induced Inflammation To The Mouse's Ear; assay: Immediate co-administration: croton-oil induced inflammation of the mouse's ear (Table I), edema weight and percent inhibition; conditions: immediate application; for Ear edema weight (± S.D.): control 16.9±3.0
Procedure: Mathematical determination of the synergistic effects of combinations of bis-(2-pyridyl-1-oxide) disulfide magnesium sulfate and hydrocortisone was done using a modification of the method described by Van Arman, C.
as §1, §2
Ethanol was used as the vehicle; pyridine contained in the usual irritant vehicle as described previously produces an alkaline reaction. Controls were treated with only the croton oil vehicle.
A fixed dose of 4 mg/ear of bis-(2-pyridyl-1-oxide) disulfide magnesium sulfate was co-applied with 0.01, 0.1 and 1 mg/ear of hydrocortisone.

[4] = delayed application, adduct alone 4 mg/ear
[5] = delayed application, adduct alone 8 mg/ear
[6] = adduct alone, topical dose 4 mg/ear
[7] = delayed application, hydrocortisone (free alcohol) alone 0.01 mg/ear
[8] = delayed application, hydrocortisone (free alcohol) alone 0.1 mg/ear
[9] = delayed application, hydrocortisone (free alcohol) alone 1.0 mg/ear
[10] = hydrocortisone alone 0.1 mg/ear
[11] = hydrocortisone alone 1.0 mg/ear

With `[O-][n+]1ccccc1SSc1cccc[n+]1[O-]` [bis-(2-pyridyl-1-oxide) disulfide magnesium sulfate] the “expected anti-inflammatory response by extrapolation of dose-response line” value ([1]; adduct by itself 0.87 mg/ear) was “little, if any, significant anti-inflammatory response”, the “Ear edema weight (± S.D.)” value ([1]; delayed application, 1 hour after croton oil, adduct alone 2 mg/ear) was 12.7 ± 2.4 mg and the “dose of adduct by itself necessary to achieve a similar response (46.3%)” value ([1]; delayed application, adduct alone) was 17.7 mg/ear. The “Percent inhibition of ear edema” value ([1]; delayed application, adduct alone 2 mg/ear) was 14.8%, the “Percent inhibition of ear edema” value [1, 4] was 23.5% and the “Ear edema weight (± S.D.)” value [1, 4] was 11.4 ± 2.8 mg. For the same compound, the “Percent inhibition of ear edema” value [1, 5] was 35.6%, the “Ear edema weight (± S.D.)” value [1, 5] was 9.6 ± 2.2 mg and the “solubility in the alcohol vehicle” value [2] was “formed a fine suspension”. The “Percent inhibition of ear edema” value [3, 6] was 24.9% and the “Ear edema weight (± S.D.)” value [3, 6] was 12.7 ± 3.0 mg.

For `C[C@]12CCC(=O)C=C1CC[C@@H]1[C@@H]2[C@@H](O)C[C@@]2(C)[C@H]1CC[C@]2(O)C(=O)CO` [Hydrocortisone], the “Percent inhibition of ear edema” value [1, 7] was 17.5%, the “Ear edema weight (± S.D.)” value [1, 7] was 12.3 ± 3.3 mg and the “Percent inhibition of ear edema” value [1, 8] was 40.3%. The “Ear edema weight (± S.D.)” value [1, 8] was 8.9 ± 2.3 mg, the “Percent inhibition of ear edema” value [1, 9] was 58.4% and the “Ear edema weight (± S.D.)” value [1, 9] was 6.2 ± 2.4 mg. The “dose of hydrocortisone by itself necessary to achieve a similar response (46.3%)” value ([1]; delayed application, hydrocortisone alone) was 0.25 mg/ear, the “expected anti-inflammatory response by extrapolation of dose-response line” value ([1]; hydrocortisone by itself 0.00125 mg/ear) was “little, if any, significant anti-inflammatory response” and the “Percent inhibition of ear edema” value ([3]; hydrocortisone alone 0.01 mg/ear (Table I)) was 23.1%. For the same compound, the “Ear edema weight (± S.D.)” value ([3]; hydrocortisone alone 0.01 mg/ear) was 13.0 ± 3.8 mg, the “Percent inhibition of ear edema” value [3, 10] was 53.3% and the “Ear edema weight (± S.D.)” value [3, 10] was 7.9 ± 2.3 mg. For the same compound, the “Percent inhibition of ear edema” value [3, 11] was 67.5%, the “Ear edema weight (± S.D.)” value [3, 11] was 5.5 ± 2.6 mg and the “inhibition” value ([3]; hydrocortisone alone, dose printed in text 0.01 mg/ear) was 53.3%.
